Structures can show the parent of a compound that is named as a salt.

NLRP3, sequence (Q96P20 whole entry): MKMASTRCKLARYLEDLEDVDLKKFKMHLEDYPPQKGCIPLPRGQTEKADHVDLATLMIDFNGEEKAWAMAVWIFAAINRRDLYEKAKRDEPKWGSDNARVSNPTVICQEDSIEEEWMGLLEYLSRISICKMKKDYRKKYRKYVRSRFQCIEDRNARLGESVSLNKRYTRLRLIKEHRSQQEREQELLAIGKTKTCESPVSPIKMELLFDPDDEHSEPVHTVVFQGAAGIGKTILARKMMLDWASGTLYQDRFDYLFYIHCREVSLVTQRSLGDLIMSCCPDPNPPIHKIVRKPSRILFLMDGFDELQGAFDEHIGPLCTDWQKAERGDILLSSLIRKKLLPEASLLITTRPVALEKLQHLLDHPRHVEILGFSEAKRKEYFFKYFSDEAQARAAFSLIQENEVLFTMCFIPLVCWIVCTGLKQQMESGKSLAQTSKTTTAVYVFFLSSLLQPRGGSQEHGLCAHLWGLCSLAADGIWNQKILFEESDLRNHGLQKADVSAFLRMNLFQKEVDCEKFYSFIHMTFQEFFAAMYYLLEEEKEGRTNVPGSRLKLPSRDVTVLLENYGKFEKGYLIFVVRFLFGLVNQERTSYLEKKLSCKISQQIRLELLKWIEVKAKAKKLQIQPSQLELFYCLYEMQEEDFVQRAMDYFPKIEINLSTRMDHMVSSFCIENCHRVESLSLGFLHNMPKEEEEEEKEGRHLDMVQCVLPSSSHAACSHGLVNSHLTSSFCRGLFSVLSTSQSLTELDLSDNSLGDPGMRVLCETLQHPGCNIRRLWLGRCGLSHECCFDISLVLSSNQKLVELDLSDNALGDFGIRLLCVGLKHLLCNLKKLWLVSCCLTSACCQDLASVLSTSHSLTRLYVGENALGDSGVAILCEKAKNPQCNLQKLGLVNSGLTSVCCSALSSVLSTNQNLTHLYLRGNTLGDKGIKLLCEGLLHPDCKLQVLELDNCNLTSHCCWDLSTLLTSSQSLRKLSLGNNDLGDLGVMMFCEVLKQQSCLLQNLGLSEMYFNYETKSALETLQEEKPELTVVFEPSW

The target in the experiment is NLRP3 (Homo sapiens, UniProt Q96P20). The experiment in a line: THP-1 cells pyroptosis assay (LPS + nigericin, resazurin readout). The experiment is classed as cell-based. Details: Seed THP-1 cells (25,000 cells/well) containing 1.0 μg/ml LPS in 40 μl of RPMI medium; host or cells: THP-1 cells, LPS-primed and nigericin-stimulated. The settings on record: NLRP3 inhibitory activity in THP-1 cells, 1.0 μg/ml LPS, 5 μM nigericin. From the text:
It is well established that the activation of NLRP3 leads to cell pyroptosis and this feature plays an important part in the manifestation of clinical disease (Yan-gang Liu et al., Cell Death & Disease, 2017, 8(2), e2579; Alexander Wree et al., Hepatology, 2014, 59(3), 898-910; Alex Baldwin et al., Journal of Medicinal Chemistry, 2016, 59(5), 1691-1710; Ema Ozaki et al., Journal of Inflammation Research, 2015, 8, 15-27; Zhen Xie & Gang Zhao, Neuroimmunology Neuroinflammation, 2014, 1(2), 60-65; Mattia Cocco et al., Journal of Medicinal Chemistry, 2014, 57(24), 10366-10382; T. Satoh et al., Cell Death & Disease, 2013, 4, e644). Therefore, it is anticipated that inhibitors of NLRP3 will block pyroptosis, as well as the release of pro-inflammatory cytokines (e.g. IL-1β) from the cell. THP-1 cells (ATCC # TIB-202) were grown in RPMI containing L-glutamine (Gibco #11835) supplemented with 1 mM sodium pyruvate (Sigma # S8636) and penicillin (100 units/ml)/streptomycin (0.1 mg/ml) (Sigma # P4333) in 10% Fetal Bovine Serum (FBS) (Sigma # F0804). The cells were routinely passaged and grown to confluency (˜10^6 cells/ml). On the day of the experiment, THP-1 cells were harvested and resuspended into RPMI medium (without FBS). The cells were then counted and viability (>90%) checked by Trypan blue (Sigma # T8154). Appropriate dilutions were made to give a concentration of 625,000 cells/ml. To this diluted cell solution was added LPS (Sigma # L4524) to give a […] Final Assay Concentration (FAC). 40 μl of the final preparation was aliquoted into each well of a 96-well plate. The plate thus prepared was used for compound screening. The following method step-by-step assay was followed for compound screening. • 1. Seed THP-1 cells (25,000 cells/well) containing 1.0 μg/ml LPS in 40 μl of RPMI medium (without FBS) in 96-well, black walled, clear bottom cell culture plates coated with poly-D-lysine (VWR #734-0317) • 2. Add 5 μl compound (8 points half-log dilution, with 10 μM top dose) or vehicle (DMSO 0.1% FAC) to the appropriate wells • 3. […] Add 5 μl nigericin (Sigma # N7143) (FAC 5 μM) to all wells • 5. […] At the end of the incubation period, spin plates at 300×g for 3 mins and remove supernatant • 7. Then add 50 μl of resazurin (Sigma # R7017) (FAC 100 μM resazurin in RPMI medium without FBS) and incubate plates for a further 1-2 hrs at 37° C. and 5% CO2 • 8. Plates were read in an Envision reader at Ex 560 nm and Em 590 nm • 9. IC50 data is fitted to a non-linear regression equation (log inhibitor vs response-variable slope 4-parameters) The results of the pyroptosis assay performed are summarised in Table 1 below as THP IC50.
The term IC50 denotes the concentration at which inhibition is half-maximal. Regarding `CN1CC2(CC(S(=O)(=O)NC(=O)Nc3c4c(cc5c3CCC5)CCC4)C2)C1` [Example 40, N-((1,2,3,5,6,7-Hexahydro-s-indacen-4-yl)carbamoyl)-2-methyl-2-azaspiro[3.3]heptane-6-sulfonamide, potassium salt], the IC50 lay within 2 to 10 µM.
In the case of `CCN(CCCS(=O)(=O)NC(=O)Nc1c(-c2ccnc(C#N)c2)cc(F)cc1C(C)C)Cc1ccccc1` [Example 46, 3-(Benzyl(ethyl)amino)-N-((2-(2-cyanopyridin-4-yl)-4-fluoro-6-isopropylphenyl)carbamoyl)propane-1-sulfonamide] it was 2 to 10 µM; in that of `COCCCS(=O)(=O)NC(=O)Nc1c(-c2ccnc(C#N)c2)cc(F)cc1C(C)C` [Example 49, N-((2-(2-Cyanopyridin-4-yl)-4-fluoro-6-isopropylphenyl)carbamoyl)-3-methoxypropane-1-sulfonamide], 2 to 10 µM.
The result for `COc1cc(-c2cc(F)cc(C(C)C)c2NC(=O)NS(=O)(=O)Cc2cccnc2)ccn1` [Example 54, N-((4-Fluoro-2-isopropyl-6-(2-methoxypyridin-4-yl)phenyl)carbamoyl)-1-(pyridin-3-yl)methanesulfonamide] reads 2 to 10 µM.
On to `COc1cc(-c2ccc3c(c2NC(=O)NS(=O)(=O)Cc2cccnc2)CCC3)ccn1` [Example 55, N-((5-(2-Methoxypyridin-4-yl)-2,3-dihydro-1H-inden-4-yl)carbamoyl)-1-(pyridin-3-yl)methanesulfonamide], for which the IC50 lay in the range of 2 to 10 µM.
The result for `O=C(Nc1c(-c2ccncc2)cc(F)c2c1CCC2)NS(=O)(=O)Cc1cccnc1` [Example 56, N-((7-Fluoro-5-(pyridin-4-yl)-2,3-dihydro-1H-inden-4-yl)carbamoyl)-1-(pyridin-3-yl)methanesulfonamide] reads 2 to 10 µM.
For the molecule `CC(C)c1cc(F)cc(-c2ccnc(C#N)c2)c1NC(=O)NS(=O)(=O)CC1CCN(C)C1` (stereo not shown) [Example 57, N-((2-(2-Cyanopyridin-4-yl)-4-fluoro-6-isopropylphenyl)carbamoyl)-1-(1-methylpyrrolidin-3-yl)methanesulfonamide], the IC50 is 2 to 10 µM.
As for `CN1CCC(CS(=O)(=O)NC(=O)Nc2c(-c3ccncc3)cc(F)c3c2CCC3)C1` (stereo not shown) [Example 60, N-((7-Fluoro-5-(pyridin-4-yl)-2,3-dihydro-1H-inden-4-yl)carbamoyl)-1-(1-methylpyrrolidin-3-yl)methanesulfonamide], the IC50 was 2 to 10 µM.
For `CCN(C(C)=O)C1CCC(S(=O)(=O)NC(=O)Nc2c3c(cc4c2CCC4)CCC3)CC1` (stereo not shown) [Example 63, N-ethyl-N-(4-(N-((1,2,3,5,6,7-hexahydro-s-indacen-4-yl)carbamoyl)sulfamoyl)cyclohexyl)acetamide], the IC50 fell in the range of 2 to 10 µM.
As for `O=C(Nc1c2c(cc3c1CCC3)CCC2)NS(=O)(=O)CC1CCN(C2COC2)C1` (stereo not shown) [Example 64, N-((1,2,3,5,6,7-Hexahydro-s-indacen-4-yl)carbamoyl)-1-(1-(oxetan-3-yl)pyrrolidin-3-yl)methanesulfonamide, Potassium Salt], the IC50 is 2 to 10 µM.
With `NCCCS(=O)(=O)NC(=O)Nc1c2c(cc3c1CCC3)CCC2` [Example 65, 3-Amino-N-((1,2,3,5,6,7-hexahydro-s-indacen-4-yl)carbamoyl) propane-1-sulfonamide potassium salt], the IC50 is 2 to 10 µM.
The result for `C[N+](C)(C)CCCS(=O)(=O)NC(=O)Nc1c2c(cc3c1CCC3)CCC2` [Example 66, 3-(N-((1,2,3,5,6,7-Hexahydro-s-indacen-4-yl)carbamoyl)sulfamoyl)-N,N,N-trimethylpropan-1-aminium, Potassium Salt] reads 2 to 10 µM; that for `CC1(C)C2CC[C@@]1(CS(=O)(=O)NC(=O)Nc1c3c(cc4c1CCC4)CCC3)C(N)C2` (stereo partly drawn) [Example 85, 1-((1S)-2-Amino-7,7-dimethylbicyclo[2.2.1]heptan-1-yl)-N-((1,2,3,5,6,7-hexahydro-s-indacen-4-yl)carbamoyl)methanesulfonamide], 2 to 10 µM.
